Data: ChEMBL document CHEMBL5226286, “The application of isatin-based multicomponent-reactions in the quest for new bioactive and druglike molecules” (Eur J Med Chem, 2021)
Values after ≈ are worked out from the molar mass of the structure shown.

How the values were obtained:
[1] = test system: Mycobacterium tuberculosis variant bovis; test: Antimycobacterial activity against active stage of Mycobacterium bovis BCG ATCC 35743 assessed as minimum inhibitory concentration by NR assay; assay type: functional
[2] = test system: Mycobacterium tuberculosis variant bovis; test: Antimycobacterial activity against dormant stage of Mycobacterium bovis BCG ATCC 35743 assessed as minimum inhibitory concentration by NR assay; assay type: functional

SMILES	MIC [1] [µg/mL]	MIC [2] [µg/mL]
Cc1ccc(Cn2cc(CN3C(=O)C4(C(C#N)=C(N)Oc5cc(C)oc(=O)c54)c4cc(Cl)ccc43)nn2)cc1 (stereo not drawn)	5.24 (≈ 9.69 µM)	5.23 (≈ 9.67 µM)
Cc1cc2c(c(=O)o1)C1(C(=O)N(Cc3cn(Cc4ccc(Cl)cc4)nn3)c3ccc(Br)cc31)C(C#N)=C(N)O2 (stereo not drawn)	4.12 (≈ 6.8 µM)	3.97 (≈ 6.55 µM)
Cc1ccc(Cn2cc(CN3C(=O)C4(C(C#N)=C(N)Oc5cc(C)oc(=O)c54)c4ccccc43)nn2)cc1 (stereo not drawn)	7.42 (≈ 14.6 µM)	5.36 (≈ 10.6 µM)
Cc1cc2c(c(=O)o1)C1(C(=O)N(Cc3cn(Cc4ccc(Cl)cc4)nn3)c3ccccc31)C(C#N)=C(N)O2 (stereo not drawn)	2.97 (≈ 5.64 µM)	4.35 (≈ 8.26 µM)
Cc1cc2c(c(=O)o1)C1(C(=O)N(Cc3cn(Cc4ccc(Cl)cc4)nn3)c3ccc(Cl)cc31)C(C#N)=C(N)O2 (stereo not drawn)	3.04 (≈ 5.42 µM)	7.73 (≈ 13.8 µM)
CC1(C)CC(=O)C2=C(C1)OC(N)=C(C#N)C21C(=O)N(Cc2cn(Cc3ccc(Cl)cc3)nn2)c2ccc(Cl)cc21 (stereo not drawn)	2.87 (≈ 4.99 µM)	3.09 (≈ 5.37 µM)
Cc1ccc(Cn2cc(CN3C(=O)C4(C(C#N)=C(N)OC5=C4C(=O)CC(C)(C)C5)c4cc(Br)ccc43)nn2)cc1 (stereo not drawn)	2.87 (≈ 4.79 µM)	6.23 (≈ 10.4 µM)
CC1(C)CC(=O)C2=C(C1)OC(N)=C(C#N)C21C(=O)N(Cc2cn(Cc3ccc(Cl)cc3)nn2)c2ccc(Br)cc21 (stereo not drawn)	4.32 (≈ 6.97 µM)	3.16 (≈ 5.1 µM)
CO[C@H]1/C=C/O[C@@]2(C)Oc3c(C)c(O)c4c(O)c(c(/C=N/N5CCN(C)CC5)c(O)c4c3C2=O)NC(=O)/C(C)=C\C=C\[C@H](C)[C@H](O)[C@@H](C)[C@@H](O)[C@@H](C)[C@H](OC(C)=O)[C@@H]1C [RIFAMPIN]	0.45 (≈ 0.547 µM)	0.81 (≈ 0.984 µM)
